These compounds were tested on A549 NSCLC cells (assay: Cellular cytotoxicity assay (Alamar Blue), A549). Conditions: Homo sapiens, 72 h, upper end given as ≧100, read-out: IC50 (μM), cytotoxicity towards A549 NSCLC cells.
Assay type: cell-based
Procedure: The anti-proliferative activity of the histone deacetylase inhibitory compounds as described herein, is evaluated using the following cell lines: HeLa and HeLa-KB (cervical carcinoma), H460 (non small cell lung cancer), A549 (non-small cell lung cancer), MCF7 (breast carcinoma), MCF10A (normal, non tumorigenic breast epithelial), MDA-MB468 (breast carcinoma), MDA-MB435 (breast carcinoma), MDA-MB231 (breast carcinoma), SKBR-3 (breast carcinoma), SKOV-3 (ovarial carcinoma), A-2780 (ovarial carcinoma), RKO (colon carcinoma), HCT-15 (colon carcinoma), HCT-116 (colon carcinoma), PC3 (prostate carcinoma), BPH1 (benign prostate hyperplasia), AsPC1 (pancreatic carcinoma), Ca127 (tongue carcinoma), A-431 (vulva carcinoma), Hec1A (endometrial carcinoma), Saos-2 (osteosarcoma), U87MG (glioblastoma), WM266-4 (melanoma), K562 (chronic myeloid leukemia), EOL1 (acute hypereosinophilic myeloid leukemia), CCRF-CEM and CCRF-CEM VCR1000 (acute lymphoblastic leukemia sensitive and resistant towards Vincristine). For quantification of cellular proliferation/living cells the Alamar Blue (Resazurin) cell viability assay is applied (O'Brien et al. Eur J Biochem 267, 5421-5426, 2000). In this assay Resazurin is reduced to the fluorescent resorufine by cellular dehydrogenase activity, correlating with viable, proliferating cells. The examples are dissolved as 20 mM solutions in dimethylsulfoxide (DMSO) and subsequently diluted in semi-logarithmic steps. Cell lines are seeded at respective density into 96 well flat bottom plates in a volume of 200 μl per well. 24 h after seeding 1 μl each of the compound dilutions are added into each well of the 96 well plate. Each compound dilution is tested as quadruplicates. Wells containing untreated control cells are filled with 200 μl DMEM medium containing 0.5% v:v DMSO. The cells are then incubated with the compounds for 72 h at 37° C. in a humidified atmosphere containing 5% carbon dioxide. To determine the viability of the cells, 20 μl of a Resazurin solution (Sigma; 90 mg/l) are added. After 4 h incubation at 37° C. the fluorescence is measured at an extinction of λ=544 nm and an emission of λ=590 nm. For the calculation of the cell viability the emission value from untreated cells is set as 100% viability and the emission rates of treated cells are set in relation to the values of untreated cells. Viabilities are expressed as % values. The corresponding IC50 values of the compounds for cytotoxic activity are determined from the concentration-effect curves by means of non-linear regression.
In the case of CC(=O)Nc1ccc(S(=O)(=O)N2CCc3nc(C(=O)Nc4ccccc4N)sc3C2)cc1 [Example 155, 5-[(4-acetamidophenyl)sulfonyl]-N-(2-aminophenyl)-4,5,6,7-tetrahydro[1,3]thiazolo[5,4-c]pyridine-2-carboxamide], the IC50 is reported as no less than 0.2 µM. Compound CCCCNC(=S)N1CCc2nc(C(=O)Nc3ccccc3N)sc2C1 [Example 105] has an IC50 of no less than 0.2 µM. Work on COc1ccc(NC(=O)N2CCc3nc(C(=O)Nc4cc(C(C)C)ccc4N)sc3C2)cc1OC [Example 48, N^2-(2-amino-5-isopropylphenyl)-N^5-(3,4-dimethoxyphenyl)-6,7-dihydro[1,3]thiazolo[5,4-c]pyridine-2,5(4H)-dicarboxamide] yielded an IC50 of no less than 0.2 µM. For Cc1ccc(C(=O)N2CCc3nc(C(=O)Nc4ccccc4N)sc3C2)cc1 [Example 89, N-(2-aminophenyl)-5-(4-methylbenzoyl)-4,5,6,7-tetrahydro[1,3]thiazolo[5,4-c]pyridine-2-carboxamide], the IC50 was no less than 0.2 µM. COc1ccc(S(=O)(=O)N2CCc3nc(C(=O)Nc4cc(OC)ccc4N)sc3C2)cc1 [Example 171, N-(2-amino-5-methoxyphenyl)-5-[(4-methoxyphenyl)sulfonyl]-4,5,6,7-tetrahydro[1,3]thiazolo[5,4-c]pyridine-2-carboxamide] showed an IC50 of no less than 0.2 µM. Work on COc1ccc(N=C(C)N2CCc3nc(C(=O)Nc4cc(C(C)C)ccc4N)sc3C2)cc1OC [Example 133, N-(2-amino-5-isopropylphenyl)-5-[N-(3,4-dimethoxyphenyl)ethanimidoyl]-4,5,6,7-tetrahydro[1,3]thiazolo[5,4-c]pyridine-2-carboxamide] yielded an IC50 of no less than 0.2 µM. Work on Nc1ccccc1NC(=O)c1nc2c(s1)CN(S(=O)(=O)c1cccs1)CC2 [Example 157, N-(2-aminophenyl)-5-(2-thienylsulfonyl)-4,5,6,7-tetrahydro[1,3]thiazolo[5,4-c]pyridine-2-carboxamide] yielded an IC50 of no less than 0.2 µM. In the case of Nc1ccccc1NC(=O)c1nc2c(s1)CN(C(=O)C(=O)Nc1ccc(OC(F)(F)F)cc1)CC2 [Example 72, N-(2-aminophenyl)-5-(oxo{[4-(trifluoromethoxy)phenyl]amino}acetyl)-4,5,6,7-tetrahydro[1,3]thiazolo[5,4-c]pyridine-2-carboxamide], the IC50 is reported as no less than 0.2 µM. In the case of Nc1ccccc1NC(=O)c1nc2c(s1)CN(S(=O)(=O)c1ccc(C(F)(F)F)cc1)CC2 [Example 161, N-(2-aminophenyl)-5-{[4-(trifluoromethyl)phenyl}sulfonyl]-4,5,6,7-tetrahydro[1,3]thiazolo[5,4-c]pyridine-2-carboxamide], the IC50 is reported as no less than 0.2 µM. Work on Nc1ccccc1NC(=O)c1nc2c(s1)CN(S(=O)(=O)c1ccc3ccccc3c1)CC2 [Example 156, N-(2-aminophenyl)-5-(2-naphthylsulfonyl)-4,5,6,7-tetrahydro[1,3]thiazolo[5,4-c]pyridine-2-carboxamide] yielded an IC50 of no less than 0.2 µM. For COc1ccc(N=C(C)N2CCc3nc(C(=O)Nc4cc(C(C)C)ccc4N)sc3C2)cc1 [Example 132, N-(2-amino-5-isopropylphenyl)-5-[N-(4-methoxyphenyl)ethanimidoyl]-4,5,6,7-tetrahydro[1,3]thiazolo[5,4-c]pyridine-2-carboxamide], the IC50 was no less than 0.2 µM. For CN(C)c1ccc(NC(=O)N2CCc3nc(C(=O)Nc4cc(-c5cccs5)ccc4N)sc3C2)cc1 [Example 55, N^2-[2-amino-5-(2-thienyl)phenyl]-N^5-[4-(dimethylamino)phenyl]-6,7-dihydro[1,3]thiazolo[5,4-c]pyridine-2,5(4H)-dicarboxamide], the IC50 was no less than 0.2 µM. With CCCOC(=O)c1ccc(OC(=O)N2CCc3nc(C(=O)Nc4ccccc4N)sc3C2)cc1 [Example 184, 4-(propoxycarbonyl)phenyl 2-[(2-aminophenyl)carbamoyl]-6,7-dihydro[1,3]thiazolo[5,4-c]pyridine-5(4H)-carboxylate] the IC50 was no less than 0.2 µM. COc1ccc(NC(=O)C(=O)N2CCc3nc(C(=O)Nc4ccccc4N)sc3C2)cc1 [Example 65, N-(2-aminophenyl)-5-{[(4-methoxyphenyl)amino](oxo)acetyl}-4,5,6,7-tetrahydro[1,3]thiazolo[5,4-c]pyridine-2-carboxamide] gave an IC50 of no less than 0.2 µM. With CN(C)c1ccc(C(=O)N2CCc3nc(C(=O)Nc4ccccc4N)sc3C2)cc1 [Example 91, N-(2-aminophenyl)-5-[4-(dimethylamino)benzoyl]-4,5,6,7-tetrahydro[1,3]thiazolo[5,4-c]pyridine-2-carboxamide] the IC50 was no less than 0.2 µM. In the case of Nc1ccccc1NC(=O)c1nc2c(s1)CN(C(=S)Nc1ccccc1)CC2 [Example 98, N-(2-aminophenyl)-5-(anilinocarbonothioyl)-4,5,6,7-tetrahydro[1,3]thiazolo[5,4-c]pyridine-2-carboxamide], the IC50 is reported as no less than 0.2 µM. Compound COc1ccc(NC(=O)C(=O)N2CCc3nc(C(=O)Nc4ccccc4N)sc3C2)cn1 [Example 70, N-(2-aminophenyl)-5-{[(6-methoxypyridin-3-yl)amino](oxo)acetyl}-4,5,6,7-tetrahydro[1,3]thiazolo[5,4-c]pyridine-2-carboxamide] has an IC50 of no less than 0.2 µM. Work on COc1ccc(N=C(C)N2CCc3nc(C(=O)Nc4ccccc4N)sc3C2)cc1 [Example 128, N-(2-aminophenyl)-5-[N-(4-methoxyphenyl)ethanimidoyl]-4,5,6,7-tetrahydro[1,3]thiazolo[5,4-c]pyridine-2-carboxamide] yielded an IC50 of no less than 0.2 µM. With Nc1ccccc1NC(=O)c1nc2c(s1)CN(C(=O)C(=O)NC1CCC(c3cccnc3)CC1)CC2 (centres unmarked) [Example 69, N-(2-aminophenyl)-5-{oxo[(4-pyridin-3-ylcyclohexyl)amino]acetyl}-4,5,6,7-tetrahydro[1,3]thiazolo[5,4-c]pyridine-2-carboxamide] the IC50 was no less than 0.2 µM. Nc1ccccc1NC(=O)c1nc2c(s1)CN(c1ccc(NC(=O)NCc3ccccc3)cc1)CC2 [Example 198, N-(2-aminophenyl)-5-{4-[(benzylcarbamoyl)amino]phenyl}-4,5,6,7-tetrahydro[1,3]thiazolo[5,4-c]pyridine-2-carboxamide] was tested, and the IC50 was no less than 0.2 µM. Work on CC(C)c1ccc(N)c(NC(=O)c2nc3c(s2)CN(C(=O)Nc2cccc4cnccc24)CC3)c1 [Example 49, N^2-(2-amino-5-isopropylphenyl)-N^5-isoquinolin-5-yl-6,7-dihydro[1,3]thiazolo[5,4-c]pyridine-2,5(4H)-dicarboxamide] yielded an IC50 of no less than 0.2 µM. With CC(C)c1ccc(N)c(NC(=O)c2nc3c(s2)CN(C(=S)Nc2ccccc2)CC3)c1 [Example 109, N-(2-amino-5-isopropylphenyl)-5-(anilinocarbonothioyl)-4,5,6,7-tetrahydro[1,3]thiazolo[5,4-c]pyridine-2-carboxamide] the IC50 was no less than 0.2 µM. Compound CCCCCNC(=NC#N)N1CCc2nc(C(=O)Nc3ccccc3N)sc2C1 [Example 121, N-(2-aminophenyl)-5-[(cyanoimino)(pentylamino)methyl]-4,5,6,7-tetrahydro[1,3]thiazolo[5,4-c]pyridine-2-carboxamide] has an IC50 of no less than 0.2 µM. COc1ccc(NC(=O)N2CCc3nc(C(=O)Nc4ccccc4N)sc3C2)cn1 [Example 38, N^2-(2-aminophenyl)-N^5-(6-methoxypyridin-3-yl)-6,7-dihydro[1,3]thiazolo[5,4-c]pyridine-2,5(4H)-dicarboxamide] was tested, and the IC50 was no less than 0.2 µM. In the case of Nc1ccccc1NC(=O)c1nc2c(s1)CN(C(=O)C(=O)Nc1cnc3ccccc3c1)CC2 [Example 77, N-(2-aminophenyl)-5-[oxo(quinolin-3-ylamino)acetyl]-4,5,6,7-tetrahydro-[1,3]thiazolo[5,4-c]pyridine-2-carboxamide], the IC50 is reported as no less than 0.2 µM. With CCCCNC(=C[N+](=O)[O-])N1CCc2nc(C(=O)Nc3ccccc3N)sc2C1 [Example 138, N-(2-aminophenyl)-5-[1-(butylamino)-2-nitrovinyl]-4,5,6,7-tetrahydro[1,3]thiazolo[5,4-c]pyridine-2-carboxamide] the IC50 was no less than 0.2 µM. Work on Nc1ccccc1NC(=O)c1nc2c(s1)CN(C(=O)Oc1ccc(-c3ccccc3)cc1)CC2 [Example 181, Biphenyl-4-yl 2-[(2-aminophenyl)carbamoyl]-6,7-dihydro[1,3]thiazolo[5,4-c]pyridine-5(4H)-carboxylate] yielded an IC50 of no less than 0.2 µM. Compound CCCCOC(=O)N1CCc2nc(C(=O)Nc3ccccc3N)sc2C1 [Example 187, Butyl 2-[(2-aminophenyl)carbamoyl]-6,7-dihydro[1,3]thiazolo[5,4-c]pyridine-5(4H)-carboxylate] has an IC50 of no less than 0.2 µM. COc1ccc(N)c(NC(=O)c2nc3c(s2)CN(C(=C[N+](=O)[O-])Nc2ccc(N(C)C)cc2)CC3)c1 [Example 144, N-(2-amino-5-methoxyphenyl)-5-[1-{[4-(dimethylamino)phenyl]amino}-2-nitrovinyl]-4,5,6,7-tetrahydro[1,3]thiazolo[5,4-c]pyridine-2-carboxamide] gave an IC50 of no less than 0.2 µM.
